Assay results as given in patent publication US10717716B2, “1,3,4-oxadiazole derivative compounds as histone deacetylase 6 inhibitor, and the pharmaceutical composition comprising the same” (Chong Kun Dang Pharmaceutical Corp., priority 2015, dated 2020).

Biological target: T1, human recombinant HDAC6 (Homo sapiens, UniProt Q9UBN7)
T1 construct: purchased Calbiochem 382180
T1 sequence (Q9UBN7 1-1215): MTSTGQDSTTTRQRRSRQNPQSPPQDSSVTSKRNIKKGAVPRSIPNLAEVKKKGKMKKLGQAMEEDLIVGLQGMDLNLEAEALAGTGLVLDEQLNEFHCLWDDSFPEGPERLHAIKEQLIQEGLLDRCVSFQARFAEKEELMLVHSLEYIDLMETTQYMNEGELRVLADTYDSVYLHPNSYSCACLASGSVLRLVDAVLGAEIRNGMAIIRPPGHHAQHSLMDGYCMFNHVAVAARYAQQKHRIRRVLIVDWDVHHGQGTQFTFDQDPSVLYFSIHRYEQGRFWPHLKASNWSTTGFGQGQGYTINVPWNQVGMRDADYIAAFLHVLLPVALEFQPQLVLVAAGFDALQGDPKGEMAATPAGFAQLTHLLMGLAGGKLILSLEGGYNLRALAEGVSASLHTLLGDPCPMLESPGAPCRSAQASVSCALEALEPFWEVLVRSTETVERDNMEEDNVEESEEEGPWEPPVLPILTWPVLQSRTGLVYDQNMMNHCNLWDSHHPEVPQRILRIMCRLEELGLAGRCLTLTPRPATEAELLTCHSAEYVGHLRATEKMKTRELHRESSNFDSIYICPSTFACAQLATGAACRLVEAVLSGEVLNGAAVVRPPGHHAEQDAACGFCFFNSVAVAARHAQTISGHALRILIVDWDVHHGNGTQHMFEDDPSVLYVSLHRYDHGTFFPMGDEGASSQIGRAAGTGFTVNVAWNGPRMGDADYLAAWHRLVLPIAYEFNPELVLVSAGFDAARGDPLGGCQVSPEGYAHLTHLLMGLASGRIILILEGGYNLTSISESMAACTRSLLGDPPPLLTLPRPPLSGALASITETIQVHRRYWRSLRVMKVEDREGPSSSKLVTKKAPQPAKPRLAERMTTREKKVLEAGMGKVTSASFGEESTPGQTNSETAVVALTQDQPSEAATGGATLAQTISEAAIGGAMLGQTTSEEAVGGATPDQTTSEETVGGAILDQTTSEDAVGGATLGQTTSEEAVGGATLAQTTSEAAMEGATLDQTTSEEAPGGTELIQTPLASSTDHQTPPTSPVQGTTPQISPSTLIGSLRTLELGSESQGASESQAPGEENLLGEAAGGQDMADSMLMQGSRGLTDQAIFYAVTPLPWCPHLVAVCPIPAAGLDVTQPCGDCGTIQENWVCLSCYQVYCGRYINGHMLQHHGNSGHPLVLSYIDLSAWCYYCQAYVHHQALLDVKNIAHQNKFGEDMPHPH
Experiment: HDAC6 enzyme activity inhibition assay (HDAC Fluorimetric Drug Discovery Kit)
Format: biochemical
Details: for HDAC6 selectivity (fold): HDAC6 over HDAC1; for IC50: human recombinant HDAC6, same protocol as HDAC1, read-out: HDAC6
Procedure: In order to examine the HDAC6 selectivity of the compounds of formula I of the present invention by HDAC1 and HDAC6 enzymatic activity inhibition assays, an experiment was performed using a conventional substance as a control.
HDAC enzyme activity was measured using a HDAC Fluorimetric Drug Discovery Kit (BML-AK511, 516, Enzo Life Science). For the HDAC1 enzyme activity test, human recombinant HDAC1 (BML-SE456) was used as an enzyme source, and Fluor de Lys®-“SIRT1 (BNL-KI177) was used as a substrate. A 5-fold dilution of the compound was seeded into a 96-well plate, and then 0.3 μg of the enzyme and 10 μM of the substrate were added to each well of the plate and allowed to react at 30° C. for 60 minutes. Then, Fluor de Lys®-Developer II (BML-KI176) was added thereto and allowed to react for 30 minutes, after which the fluorescence value (Ex 360, Em 460) was measured using a multi-plate reader (Flexstation 3, Molecular Device). The HDAC6 enzyme was tested using human recombinant HDAC6 (382180) (Calbiochem) according to the same protocol as the HDAC1 enzyme activity test method. Based on the resulting values, each IC5, value was calculated using GraphPad Prism4.0 program.

Row | Compound | HDAC6 selectivity (fold) | IC50 [nM]
1 | CN1CCN(C(=O)N(Cc2ccc(-c3nnc(C(F)F)o3)cc2F)c2ccccc2)CC1 [Compound 21378, N-(4-(5-(difluoromethyl)-1,3,4-oxadiazol-2-yl)-2-fluorobenzyl)-4-methyl-N-phenylpiperazine-1-carboxamide] | 500 | 20
2 | CN1CCCN(C(=O)N(Cc2ccc(-c3nnc(C(F)(F)F)o3)cc2)c2ccccc2)CC1 [Compound 21379, 4-Methyl-N-phenyl-N-(4-(5-(trifluoromethyl)-1,3,4-oxadiazol-2-yl)benzyl)-1,4-diazepane-1-carboxamide] | 132 | 76
3 | C[C@@H]1CN(C(=O)N(Cc2ccc(-c3nnc(C(F)(F)F)o3)cc2)c2ccccc2)C[C@H](C)O1 [Compound 21380, (2S,6R)-2,6-Dimethyl-N-phenyl-N-(4-(5-(trifluoromethyl)-1,3,4-oxadiazol-2-yl)benzyl) morpholine-4-carboxamide] | 61 | 165
4 | CC(C)(C)N1CCN(C(=O)N(Cc2ccc(-c3nnc(C(F)(F)F)o3)cc2)c2ccccc2)CC1 [Compound 21381, 4-(Tert-butyl)-N-phenyl-N-(4-(5-(trifluoromethyl)-1,3,4-oxadiazol-2-yl)benzyl)piperazine-1-carboxamide] | 76 | 132
5 | CC(C)(C)N1CCN(C(=O)N(Cc2ccc(-c3nnc(C(F)(F)F)o3)cc2F)c2ccccc2)CC1 [Compound 21382, 4-(Tert-butyl)-N-(2-fluoro-4-(5-(trifluoromethyl)-1,3,4-oxadiazol-2-yl)benzyl)-N-phenylpiperazine-1-carboxamide] | 127 | 79
6 | CC(C)(C)N1CCN(C(=O)N(Cc2ccc(-c3nnc(C(F)F)o3)cc2F)c2ccccc2)CC1 [Compound 21383, 4-(Tert-butyl)-N-(4-(5-(difluoromethyl)-1,3,4-oxadiazol-2-yl)-2-fluorobenzyl)-N-phenylpiperazine-1-carboxamide] | 200 | 50
7 | O=C(N1CCN(CCO)CC1)N(Cc1ccc(-c2nnc(C(F)(F)F)o2)cc1)c1ccccc1 [Compound 21384, 4-(2-Hydroxyethyl)-N-phenyl-N-(4-(5-(trifluoromethyl)-1,3,4-oxadiazol-2-yl)benzyl)piperazine-1-carboxamide] | 127 | 79
8 | C[C@@H]1CN(C(=O)N(Cc2ccc(-c3nnc(C(F)(F)F)o3)cc2)c2ccccc2)C[C@H](C)N1 [Compound 21385, (3S,5R)-3,5-Dimethyl-N-phenyl-N-(4-(5-(trifluoromethyl)-1,3,4-oxadiazol-2-yl)benzyl)piperazine-1-carboxamide] | 175 | 57
9 | C[C@@H]1CN(C(=O)N(Cc2ccc(-c3nnc(C(F)(F)F)o3)cc2)c2ccccc2)C[C@H](C)N1C [Compound 21386, (3R,5S)-3,4,5-Trimethyl-N-phenyl-N-(4-(5-(trifluoromethyl)-1,3,4-oxadiazol-2-yl)benzyl)piperazine-1-carboxamide] | 213 | 47
10 | CC(=O)N1[C@H](C)CN(C(=O)N(Cc2ccc(-c3nnc(C(F)(F)F)o3)cc2)c2ccccc2)C[C@@H]1C [Compound 21387, (3R,5S)-4-Acetyl-3,5-dimethyl-N-phenyl-N-(4-(5-(trifluoromethyl)-1,3,4-oxadiazol-2-yl)benzyl)piperazine-1-carboxamide] | 41 | 241
11 | C[C@@H]1CN(C(=O)N(Cc2ccc(-c3nnc(C(F)(F)F)o3)cc2)c2ccccc2)C[C@H](C)N1S(C)(=O)=O [Compound 21388, (3R,5S)-3,5-Dimethyl-4-(methylsulfonyl)-N-phenyl-N-(4-(5-(trifluoromethyl)-1,3,4-oxadiazol-2-yl)benzyl)piperazine-1-carboxamide] | 42 | 240
12 | O=C(N1CCS(=O)(=O)CC1)N(Cc1ccc(-c2nnc(C(F)(F)F)o2)cc1)c1cccc(C(F)(F)F)c1 [Compound 21391, N-(4-(5-(trifluoromethyl)-1,3,4-oxadiazol-2-yl)benzyl)-N-(3-(trifluoromethyl)phenyl)thiomorpholine-4-carboxamide 1,1-dioxide] | 27 | 366
13 | O=C(N1CCS(=O)(=O)CC1)N(Cc1ccc(-c2nnc(C(F)(F)F)o2)cc1)c1cccc(F)c1 [Compound 21392, N-(3-fluorophenyl)-N-(4-(5-(trifluoromethyl)-1,3,4-oxadiazol-2-yl)benzyl)thiomorpholine-4-carboxamide 1,1-dioxide] | 65 | 153
14 | O=C(N1CCS(=O)(=O)CC1)N(Cc1ccc(-c2nnc(C(F)(F)F)o2)cc1)c1ccc(Cl)cc1 [Compound 21394, N-(4-chlorophenyl)-N-(4-(5-(trifluoromethyl)-1,3,4-oxadiazol-2-yl)benzyl)thiomorpholine-4-carboxamide 1,1-dioxide] | 56 | 177
15 | O=C(N1CCS(=O)(=O)CC1)N(Cc1ccc(-c2nnc(C(F)(F)F)o2)cc1)c1cccc(Cl)c1 [Compound 21395, N-(3-chlorophenyl)-N-(4-(5-(trifluoromethyl)-1,3,4-oxadiazol-2-yl)benzyl)thiomorpholine-4-carboxamide 1,1-dioxide] | 137 | 73
16 | CC(C)(O)CN1CCN(C(=O)N(Cc2ccc(-c3nnc(C(F)(F)F)o3)cc2)c2ccccc2)CC1 [Compound 21396, 4-(2-hydroxy-2-methylpropyl)-N-phenyl-N-(4-(5-(trifluoromethyl)-1,3,4-oxadiazol-2-yl)benzyl)piperazine-1-carboxamide] | 34 | 292
17 | CC(C)N(Cc1ccc(-c2nnc(C(F)(F)F)o2)cc1)C(=O)N1CCS(=O)(=O)CC1 [Compound 21397, N-isopropyl-N-(4-(5-(trifluoromethyl)-1,3,4-oxadiazol-2-yl)benzyl)thiomorpholine-4-carboxamide 1,1-dioxide] | 11 | 882
18 | CN(Cc1ccc(-c2nnc(C(F)(F)F)o2)cc1)C(=O)N1CCOCC1 [Compound 21398, N-methyl-N-(4-(5-(trifluoromethyl)-1,3,4-oxadiazol-2-yl)benzyl)morpholine-4-carboxamide] | 12 | 849
19 | CCN(Cc1ccc(-c2nnc(C(F)(F)F)o2)cc1)C(=O)N1CCOCC1 [Compound 21399, N-ethyl-N-(4-(5-(trifluoromethyl)-1,3,4-oxadiazol-2-yl)benzyl)morpholine-4-carboxamide] | 13 | 780
20 | CCCN(Cc1ccc(-c2nnc(C(F)(F)F)o2)cc1)C(=O)N1CCOCC1 [Compound 21400, N-propyl-N-(4-(5-(trifluoromethyl)-1,3,4-oxadiazol-2-yl)benzyl)morpholine-4-carboxamide] | 17 | 582
21 | CCCCN(Cc1ccc(-c2nnc(C(F)(F)F)o2)cc1)C(=O)N1CCOCC1 [Compound 21401, N-butyl-N-(4-(5-(trifluoromethyl)-1,3,4-oxadiazol-2-yl)benzyl)morpholine-4-carboxamide] | 20 | 497
